Assay results as given in BindingDB's records for doi:10.1016/S0960-894X(01)81044-1 (1991).

What was measured:
[1] = Inhibitory activity against sweet almond Beta-glucosidase
[2] = as above; remark: listed apart in the source

Structure (SMILES) | Ki [1] | Ki [2]
OC[C@H]1OC[C@H](O)[C@@H](O)[C@@H]1O [(2R,3S,4R,5S)-2-(hydroxymethyl)oxane-3,4,5-triol] | 60 mM | –
O[C@H]1[C@H](O)COC[C@@H]1O [(3S,4R,5R)-Tetrahydro-pyran-3,4,5-triol] | 39 mM | –
OC[C@H]1OC[C@@H](O)[C@@H]1O [(2R,3S,4R)-2-Hydroxymethyl-tetrahydro-furan-3,4-diol] | 36.2 mM | –
NCCc1cn(C(=O)c2ccccc2)cn1 [[4-(2-Amino-ethyl)-imidazol-1-yl]-phenyl-methanone] | – | 0.00011 mM
OC[C@H]1OC[C@@H](O)[C@H]1O [(2R,3R,4R)-2-Hydroxymethyl-tetrahydro-furan-3,4-diol] | 14.8 mM | –
